Laboratory results: patent publication US20060069038A1, “Irreversible caspase-3 inhibitors as active site probes” (priority 2003, published 2006)

Assays:
[1] = target: T1, purified recombinant human caspase-3 (Homo sapiens, UniProt P42574); assay: DEVD-AMC cleavage activity with recombinant human caspase-3 pre-incubated with inhibitor; type: biochemical; conditions: purified recombinant caspase-3 pre-incubated with increasing amounts of M791
T1 construct: Active site shared between large and small caspase subunit
T1 sequence (P42574 29-175 limits assumed): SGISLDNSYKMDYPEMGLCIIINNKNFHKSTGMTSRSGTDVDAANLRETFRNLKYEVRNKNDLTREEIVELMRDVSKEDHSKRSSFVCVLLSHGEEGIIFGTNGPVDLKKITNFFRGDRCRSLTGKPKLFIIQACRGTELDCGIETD
T1 sequence (P42574 176-277 limits assumed): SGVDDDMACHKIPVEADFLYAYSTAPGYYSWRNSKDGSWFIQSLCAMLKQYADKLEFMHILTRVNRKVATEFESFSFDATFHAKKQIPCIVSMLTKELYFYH
Procedure: FIG. 3. Potency assessment caspase inhibitors by [^125]-M808 labeling and by DEVD-AMC cleavage activity. A, B-Caspase inhibitor titration and [^125]-M808 labeling with purified recombinant human caspase-3. A-M791 with 5 minute labeling reaction and M791 with 60 minute labeling reaction. In A, the indicated IC50 was defined as the concentration of M791 that reduced the intensity of [^125I]-M808-labeled p17 subunit of caspase-3 by 50%. B-Caspase inhibitor titration and DEVD-AMC cleavage activity with recombinant human caspase-3 that had been incubated with indicated concentration of M791. Under the fluorogenic assay conditions Ki=IC50/2.
Tissues (rat liver, kidney, brain, thymus, mouse thymus) were either frozen or processed within 20 minutes of their removal. Rat tissues and cultured cells were homogenized in ice cold cell lysis buffer (50 mM Tris-Cl pH 7.5, 2 mM EDTA, 1% NP-40) supplemented with 5 mM DTT and Complete protease inhibitor cocktail (Roche). Thymi from mice injected with [^125I]-M808 were homogenized in lysis buffer supplemented with 25 μM of M808. Nuclear debris was removed by centrifugation at 13000 rpm for 10 min and the soluble fraction quantitated by Bradford assay (Bio-Rad). Caspase-3 like activity was determined with the fluorogenic substrate Ac-DEVD-AMC as described by Roy et al. (2001) Proc. Nat. Acad. Sci. USA 98: 6132-6137. […]

[2] = tested on: active caspases; assay: In vivo labeling of active caspases with [125I]-M808 in CLP-operated mice (thymi extracts); parameters: species or system mouse; conditions: i.v. injection in CLP mice, radiolabeled p17 in thymi, FIG. 6
Procedure: FIG. 6. A-Schematic representation of in vivo labeling of active caspases with [^125I]-M808 in CLP-operated mice. Mice underwent either sham surgery (n=2) or CLP surgery (n=5). [^125I]-M808 was injected intravenously 23.15 h later, and animals were euthanized 24 h post-surgery. B-Caspase-3 western blot of mouse thymi extracts following CLP and administration of [^125I]-M808. Arrows indicate full length pro-caspase-3 (p32) and the processed caspase large subunit (p17). C— in-vivo [^125I]-M808-labeled protein in thymi extracts from septic mice. Arrow points to a radiolabeled caspase large subunit.
Female Sprague-Dawley rats (250-300 g; Charles River, St-Constant, Qc, Canada) and ND4 mice (20-25 g Harlane Sprague-Dawley) were housed in a 12 hour light/dark cycle with free access to food and water. All procedures were carried out under appropriate Animal Care Committee approval in strict accordance to Merck and Co. animal care policies. For Cecal Ligation and Perforation, animals were anesthetized with 2.5% isoflurane and body temperature maintained by use of a thermoregulated heated blanket. A midline incision was made in the abdominal wall of the animal and the cecum exteriorized. The cecum was ligated with a nylon (4-0) suture proximal to the ileocecal valve. In mice, perforation of the cecum was done using a 23 g needle passed through the distal portion of the cecum. […]

IC50 [1] [nM] | SMILES | detection of active caspases in vivo [2]
0.6 | COc1ccc(-c2nc(C)no2)cc1CC(=O)N[C@H](C(=O)N[C@@H](CC(=O)O)C(=O)CSCc1ccccc1)C(C)C [Example M791, (3S)-5-(benzylthio)-3-[(N-{[2-methoxy-5-(3-methyl-1,2,4-oxadiazol-5-yl)phenyl]acetyl}-L-valyl)amino]4-oxopentanoic acid] | 
 | COc1ccc(I)cc1CC(=O)N[C@H](C(=O)NC(CC(=O)O)C(=O)CF)C(C)C (stereo partly drawn) [[^125I]-M808, 5-fluoro-3-({N-[(5-iodo-2-methoxyphenyl)acetyl]-L-valyl}amino)-4-oxopentanoic acid] | can detect active caspases in vivo
